{"source": "patent US20260315446A1", "about": "“ANTIFUNGAL COMPOUNDS AND USES THEREOF” (priority 2023, published 2026)", "key": {"immunosuppression": {"tested_on": "immunosuppression", "conditions": "listed as L-685,818; cited from earlier work"}, "fungi": {"tested_on": "fungi", "conditions": "listed as L-685,818; cited from earlier work"}, "[1]": {"tested_on": "IL-2 expression in primary murine CD4+ T cells", "test": "In vitro immunosuppressive activity, IL-2 expression (Example 4)", "format": "cell-based, mouse", "method": "Spleen and lymph nodes were collected from C57BL/6 mice and homogenized through a 40 μm filter. Pan-CD4^+ T cells were enriched using MagniSort Mouse CD4 T cell Kit (eBioscience) according to the manufacturer's protocol. Thereafter, CD4+CD25−CD44lo CD62Lhi naïve T cells were FACS-sorted. The naïve CD4+ T cells were grown in Iscove's Modified Dulbecco's Medium (IMDM) supplemented with glutamine, penicillin, streptomycin, gentamicin, 2-mercaptoethanol, and 10% FBS. Cells were then cultured on anti-hamster IgG coated plates in the presence of hamster anti-CD3 epsilon and anti-CD28 antibodies (BD Biosciences), neutralizing anti-IL-4 antibody (eBioscience), recombinant IL-12 (10 ng/mL), and recombinant IL-2 (50 U/mL) for 72 h. During this period, cells were grown in the presence of 2× serially diluted FK506, FK520, or analog suspended in DMSO for 72 h. During the last 4 h of culture, phorbol 12-myristate 13-acetate (PMA; Sigma), ionomycin (Sigma), and GolgiStop (BD Biosciences) were added to the culture to facilitate detection of intracellular cytokines via flow cytometry.\nLive cells were stained with FITC-conjugated anti-CD4 antibody (eBioscience) and Fixable Viability Dye eFluor 506 (eBioscience) on ice, followed by fixation and permeabilization using the Foxp3 Transcription Factor Staining Kit (eBioscience). Intracellular staining was performed at room temperature using PE-conjugated anti-IL-2 antibody (eBioscience), followed by analysis with a BD LSRFortessa X-20 flow cytometer."}, "C. neoformans": {"tested_on": "C. neoformans", "test": "MIC assay (Example 4)", "format": "cell-based, Cryptococcus neoformans", "conditions": "Cryptococcus neoformans", "method": "Both JH-FK-10 and JH-FK-11 maintained in vitro antifungal activity against C. neoformans with MICs of 0.8 and 1.6 μg/mL, respectively (Table 11).\nIn vitro antifungal activity of FK506, FK520, and analogs was assessed in RPMI 1640 (Sigma-Aldrich) for all strains tested. Minimum inhibitory concentrations (MIC) for each drug were measured using modified Clinical and Laboratory Standards Institute (CLSI) M38-A2 and M27-A3 standard in vitro antifungal susceptibility protocols. Broth microdilution assays for MIC assessment were performed as previously described. All antifungal assays with C. neoformans were performed at 37° C."}, "C. neoformans strain H99 [2]": {"tested_on": "C. neoformans strain H99", "test": "Murine cryptococcal infection, spleen fungal burden (Example 3)", "format": "in vivo, Cryptococcus neoformans in A/J mice", "conditions": "14 days; fluconazole 6 mg/kg, JH-FK-08 40 mg/kg, i.p. twice per day", "method": "(§1) In vivo antifungal activity and therapeutic benefit were assayed by investigating the impact of the FK520 analog on organ fungal burden during cryptococcosis. Specifically, the in vivo efficacy of JH-FK-08 on fungal burden was assessed using A/J female mice. Immunodeficient A/J mice were selected in part due to their defect in complement component five and their susceptibility to cryptococcal infection. Treatment groups included vehicle of 10% Kolliphor: ethanol (1:1) in phosphate-buffered saline (PBS), 6 mg/kg fluconazole, 40 mg/kg JH-FK-08, or the fluconazole and JH-FK-08 combination, all given via intraperitoneal (i.p.) injection twice per day beginning at 4 hours post infection. […] Mice were intranasally infected with C. neoformans strain H99, and fungal burden in the lung, spleen, and brain was assessed after 14 days of treatment.\n(§2) C. neoformans inoculum was prepared by growing a 5-mL overnight YPD culture spinning in a tissue culture roller drum at 30° C. Cells were pelleted by centrifugation and washed in sterile PBS three times. Cell density was determined by hemocytometer, and cells were diluted to 2×10^6 cells/mL. Mice (10 to 20 g) were infected with 10^5 cells of C. neoformans H99. […] Following inhalation of the inoculum, animals were monitored for post anesthesia recovery. […] Fungal burden was assessed 24 h after the final dose. […]"}, "C. neoformans strain H99 [3]": {"tested_on": "C. neoformans strain H99", "test": "Murine cryptococcal infection, lung fungal burden (Example 3)", "format": "in vivo, Cryptococcus neoformans in A/J mice", "conditions": "JH-FK-08 40 mg/kg", "method": "as §1, with “[…],” for “6 mg/kg fluconazole, 40 mg/kg JH-FK-08,”, “all given via intraperitoneal (i.p.) injection twice per day beginning at 4 hours post” left out\n(§3) C. neoformans inoculum was prepared by growing a 5-mL overnight YPD culture spinning in a tissue culture roller drum at 30° C. Cells were pelleted by centrifugation and washed in sterile PBS three times. Cell density was determined by hemocytometer, and cells were diluted to 2×10^6 cells/mL. Mice (10 to 20 g) were infected with 10^5 cells of C. neoformans H99. For inhalation infection, animals were anesthetized with isoflurane before 50 μL of inoculum was pipetted onto the upright nasal passages of each animal. Following inhalation of the inoculum, animals were monitored for post anesthesia recovery. Treatment of animals began 4 hours post infection and was continued for 14 days. Fungal burden was assessed 24 h after the final dose.\nFor survival curve analysis, animals were monitored until reaching defined humane end points, including social isolation, hunched posture, weight loss, lack of grooming, and labored breathing, and were then euthanized via CO2 inhalation. […] One hundred microliters of each dilution was plated on YPD plates supplemented with YPD 50 μg/mL ampicillin and 30 μg/mL chloramphenicol, incubated at 30° C. for 2 days, and assessed for colony-forming units. CFU per organ weight was calculated and plotted using GraphPad Prism 9."}, "C. neoformans strain H99 [4]": {"tested_on": "C. neoformans strain H99", "test": "Survival during cryptococcal infection (Example 3)", "format": "in vivo, Cryptococcus neoformans in A/J mice", "conditions": "2 weeks twice daily i.p.; fluconazole 6 mg/kg, JH-FK-08 40 mg/kg; vehicle 16 days", "method": "Finally, whether the antifungal efficacy translates into extended survival during infection was assessed. To test the impact of treatment on survival, murine survival was monitored in the cryptococcosis infection model. Following the same protocol of infection and dosing as in the fungal burden experiment, animal survival was monitored following infection and 2 weeks of intraperitoneal dosing. Fluconazole treatment extended median survival from 16 to 27 days.\nas §3\nFor survival curve analysis, animals were monitored until reaching defined humane end points, including social isolation, hunched posture, weight loss, lack of grooming, and labored breathing, and were then euthanized via CO2 inhalation. For fungal burden analysis, mice were euthanized following 2 weeks of treatment with a designated antifungal, vehicle, or combination. Brain, lung, and spleen were harvested from animals, weighed, and homogenized in sterile PBS using steel beads and a bead beater. Each organ homogenate was serially diluted 10-fold to 10-4 in PBS. One hundred microliters of each dilution was plated on YPD plates supplemented with YPD 50 μg/mL ampicillin and 30 μg/mL chloramphenicol, incubated at 30° C. for 2 days, and assessed for colony-forming units. CFU per organ weight was calculated and plotted using GraphPad Prism 9."}, "C. neoformans strain H99 [5]": {"tested_on": "C. neoformans strain H99", "test": "Murine cryptococcal infection, brain fungal burden (Example 3)", "format": "in vivo, Cryptococcus neoformans in A/J mice", "conditions": "14 days; fluconazole 6 mg/kg, JH-FK-08 40 mg/kg, i.p. twice per day", "method": "as §1, §2"}, "C. neoformans H99 [6]": {"tested_on": "C. neoformans H99", "test": "Intranasal model of pulmonary cryptococcosis, lung fungal burden (Example 1)", "format": "in vivo, Cryptococcus neoformans in A/J mice", "conditions": "day 14; fluconazole 12 mg/kg i.p. daily", "protocol": "First, in the intranasal model, animals were anesthetized and infected with 10^5 cells of wild-type H99 C. neoformans via instillation in the animal's nares. These animals were monitored for 14 days and then sacrificed. This model tests the efficacy of JH-FK-05 to treat a pulmonary infection, which is the most common manifestation of early-stage cryptococcosis in patients. […] In both models, animals were treated once daily via i.p. injection beginning 3 h after infection with either vehicle, 60 mg/kg JH-FK-05, 12 mg/kg fluconazole, or a combination of the two monotherapies.\nWild-type H99 C. neoformans cells were grown overnight at 30° C. in a roller drum in yeast extract-peptone-dextrose (YPD) medium. […] H99 cells were counted with a hemacytometer and diluted to 2×10^6 cells/mL in PBS for the pulmonary model and 2×10^5 cells/mL in PBS for the disseminated model.\nFemale A/J mice (3 to 4 weeks old; Jackson Laboratory) were anesthetized utilizing an isoflurane chamber. […] After 14 days, animals were either sacrificed for fungal burden analysis or monitored for health and survival until reaching a humane endpoint.\nMice were euthanized by CO2 inhalation at the predetermined experimental endpoint. […] A 100-μL aliquot of each dilution was plated on antibiotic plates (YPD, 50 μg/mL ampicillin, and 30 g/mL chloramphenicol), incubated for 48 to 72 h at 30° C., and assessed for CFU. […]"}, "C. neoformans H99 [7]": {"tested_on": "C. neoformans H99", "test": "Survival in intranasal cryptococcosis model (Example 1)", "format": "in vivo, Cryptococcus neoformans in A/J mice", "conditions": "14 days treatment; JH-FK-05 60 mg/kg, fluconazole 12 mg/kg, i.p. daily", "method": "To verify if this reduction seen in the fungal burdens of JH-FK-05 and combination-treated animals could translate into a meaningful therapeutic effect, the survival of animals infected via the intranasal route was assessed (FIG. 8A). As in the fungal burden model, these animals received daily treatment for only 14 days. Following the termination of treatment, animals were monitored for signs of decline, lethargy, and ultimately, moribundity. Untreated animals in this model typically survive for about 3 weeks, and similar results were observed here (vehicle treatment median survival, 22 days). Corroborating the results of the fungal burden study, a significant extension of survival for both JH-FK-05 (median survival, 26 days) and fluconazole (median survival, 25 days) was observed.\nFemale A/J mice (3 to 4 weeks old; Jackson Laboratory) were anesthetized utilizing an isoflurane chamber. While anesthetized, […] of 2×10^6 cells/mL suspension was dripped onto the nares of mice, allowing them to inhale the full inoculum. Treatment began 3 h following infection with i.p. dosing of vehicle, 60 mg/kg JH-FK-05, 12 mg/kg fluconazole, or combination. […] After 14 days, animals were either sacrificed for fungal burden analysis or monitored for health and survival until reaching a humane endpoint. […] Statistical significance was determined using log-rank (Mantel-Cox) tests."}}, "note": "Entries after “also recorded” stand apart in the source; their conditions may differ. Like-named read-outs stand apart in the source and are kept apart here.", "data": [{"smiles": "CC[C@@H]1/C=C(\\C)C(O)[C@H](C)C[C@H](OC)[C@H]2O[C@@](O)(C(=O)C(=O)N3CCCC[C@H]3C(=O)O[C@H](/C(C)=C/[C@@H]3CC[C@@H](O)[C@H](OC)C3)[C@H](C)[C@@H](O)CC1=O)[C@H](C)C[C@@H]2OC", "note": "(single isomer, unassigned) [JH-FK-11]", "values": [{"measurement": "immunosuppression", "setting": "immunosuppression", "result": "non-immunosuppressive; also recorded: reduced for immunosuppression in vitro"}, {"measurement": "antifungal activity", "setting": "fungi", "result": "robust antifungal activity; also recorded: broad-spectrum antifungal activity"}, {"measurement": "immunosuppressive activity", "setting": "[1]", "result": "detectable immunosuppressive activities; also recorded: significantly reduced for immunosuppressive activity compared to its FK506 counterpart JH-FK-10"}, {"measurement": "IC50", "setting": "[1]; Mus musculus, CD4+ T, Table 12", "result": 41.4, "unit": "nM"}, {"measurement": "MIC", "setting": "C. neoformans; 37° C., Table 13, read-out: C. neoformans MIC", "result": 1.6, "unit": "µg/mL"}, {"measurement": "MIC", "setting": "C. neoformans; read-out: C. neoformans MIC, 37° C., Table 11", "result": 3.2, "unit": "µg/mL"}, {"measurement": "MIC", "setting": "C. neoformans; read-out: C. neoformans MIC, 37° C., Table 12", "result": 1.6, "unit": "µg/mL"}]}, {"smiles": "OC(Cn1cncn1)(Cn1cncn1)c1ccc(F)cc1F", "note": "[fluconazole, reference compound]", "values": [{"measurement": "spleen fungal burden", "setting": "C. neoformans strain H99 [2]", "result": "no detectable fungal burden"}, {"measurement": "reduction of lung fungal burden", "setting": "C. neoformans strain H99 [3]; 14 days, fluconazole 6 mg/kg, i.p. twice per day", "result": "~ 6 fold"}, {"measurement": "lung fungal burden reduction", "setting": "C. neoformans strain H99 [3]; once daily, fluconazole 12 mg/kg", "result": "limited efficacy in reducing lung fungal burden"}, {"measurement": "median survival", "setting": "C. neoformans strain H99 [4]", "result": 27, "unit": "days"}, {"measurement": "brain fungal burden", "setting": "C. neoformans strain H99 [5]", "result": "no detectable fungal burden"}, {"measurement": "lung fungal burden", "setting": "C. neoformans H99 [6]", "result": "did not reduce the fungal burden"}, {"measurement": "median survival", "setting": "C. neoformans H99 [7]", "result": 25, "unit": "days"}]}]}
